# Laboratory results published in patent EP4603105A1, “PHARMACEUTICAL COMPOSITION CONTAINING CYCLIC COMPOUND HAVING SELECTIVE KRAS INHIBITORY EFFECT AGAINST HRAS AND NRAS” (CHUGAI SEIYAKU KABUSHIKI KAISHA, priority 2022, dated 2024).
# What was measured:
# [1] = biological target: GDP-bound NRAS wild-type protein (Homo sapiens, UniProt P01111); experiment: Binding to NRAS by surface plasmon resonance (SPR), KD and KD ratio to KRAS; conditions: ratio of KD for GDP-bound NRAS wild-type protein to KD for KRAS
# Chain of GDP-bound NRAS wild-type protein (P01111 whole entry): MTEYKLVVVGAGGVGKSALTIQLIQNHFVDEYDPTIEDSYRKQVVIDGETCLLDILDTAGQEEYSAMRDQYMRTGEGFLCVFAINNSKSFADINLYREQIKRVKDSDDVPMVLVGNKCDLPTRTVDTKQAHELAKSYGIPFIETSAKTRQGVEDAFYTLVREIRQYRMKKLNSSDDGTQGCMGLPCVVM
# Procedure, shortened: (§1)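 GDP-bound biotin-Avi RAS captured at ~100–300 RU, 30°C, pH 7.4 HBS containing 10 µM GDP, 10 mM MgCl2, 1 mM DTT, 0.01% Tween 20 and 4% DMSO. KD by 1:1 fitting.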
# HRAS wild-type protein = HRAS wild-type protein (Homo sapiens, UniProt P01112); experiment: Binding to HRAS by surface plasmon resonance (SPR), KD and KD ratio to KRAS; conditions: ratio of KD for HRAS wild-type protein to KD for KRAS
# Chain of HRAS wild-type protein (P01112 whole entry): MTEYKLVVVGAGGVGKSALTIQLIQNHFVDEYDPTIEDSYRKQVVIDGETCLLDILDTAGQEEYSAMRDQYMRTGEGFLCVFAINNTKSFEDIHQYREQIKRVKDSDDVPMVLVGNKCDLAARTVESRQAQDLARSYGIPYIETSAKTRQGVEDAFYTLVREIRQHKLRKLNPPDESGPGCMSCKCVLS
# Procedure, shortened: as §1
# [2] = tested on: human lung cancer strain NCI-H441; format: cell-based
# Procedure, shortened: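 Readout: […] after the ATP-based reagent. Compound: serial dilutions in dimethyl sulfoxide.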
SMILES,NRAS /KRAS [1],HRAS /KRAS (HRAS wild-type protein),IC50 [2] [nM]
CCO[C@@H]1C[C@H]2C(=O)NC3(CCCC3)C(=O)N(C)[C@@H](C3CCCC3)C(=O)N(C)[C@H](C(=O)N3CCOCC3)CC(=O)N(C)[C@@H](CC)C(=O)N[C@@H]([C@@H](C)CC)C(=O)N(C)CC(=O)N(C)[C@H]3CC(C)=CCN(C3=O)[C@@H](Cc3ccc(C(F)(F)F)cc3)C(=O)N(C)CC(=O)N[C@@H](CCc3cc(F)c(C(F)(F)F)c(F)c3)C(=O)N2C1 [PP1043],C (A compound having a KD ratio of 0.1 or more and less than 3 is denoted as C),C (A compound having a KD ratio of 0.1 or more and less than 3 is denoted as C),387
CCO[C@@H]1C[C@H]2C(=O)NC3(CCC3)C(=O)N(C)[C@@H](C3CCCC3)C(=O)N(C)[C@H](C(=O)N3CCOCC3)CC(=O)N(CC)[C@@H](CC(C)C)C(=O)N[C@@H]([C@@H](C)CC)C(=O)N(C)CC(=O)N(C)[C@H]3CC(C)=CCN(C3=O)[C@@H](Cc3ccc(C(F)(F)F)cc3)C(=O)N(C)CC(=O)N[C@@H](CCc3cc(F)c(C(F)(F)F)c(F)c3)C(=O)N2C1 [PP1044],C (A compound having a KD ratio of 0.1 or more and less than 3 is denoted as C),C (A compound having a KD ratio of 0.1 or more and less than 3 is denoted as C),44.1
CCO[C@@H]1C[C@H]2C(=O)NC3(CCCC3)C(=O)N(C)[C@@H](C3CCCC3)C(=O)N(C)[C@H](C(=O)N(C)C)CC(=O)N(C)[C@@H](CC(C)C)C(=O)N[C@@H]([C@@H](C)CC)C(=O)N(C)CC(=O)N(C)[C@H]3CC(C)=C(C)CN(C3=O)[C@@H](Cc3ccc(C(F)(F)F)cc3)C(=O)N(C)CC(=O)N[C@@H](CCc3cc(F)c(C(F)(F)F)c(F)c3)C(=O)N2C1 [PP1045],C (A compound having a KD ratio of 0.1 or more and less than 3 is denoted as C),C (A compound having a KD ratio of 0.1 or more and less than 3 is denoted as C),207
CCO[C@@H]1C[C@H]2C(=O)NC3(CCC3)C(=O)N(C)[C@@H](C3CCCC3)C(=O)N(C)[C@H](C(=O)N(C)C)CC(=O)N(C)[C@@H](CC(C)C)C(=O)N[C@@H]([C@@H](C)CC)C(=O)N3CC[C@H]3C(=O)N(C)[C@H]3CC(C)=C(C)CN(C3=O)[C@@H](Cc3ccc(C(F)(F)F)cc3)C(=O)N(C)CC(=O)N[C@@H](CCc3cc(F)c(C(F)(F)F)c(F)c3)C(=O)N2C1 [PP1047],C (A compound having a KD ratio of 0.1 or more and less than 3 is denoted as C),C (A compound having a KD ratio of 0.1 or more and less than 3 is denoted as C),117
CCO[C@@H]1C[C@H]2C(=O)NC3(CCC3)C(=O)N(C)[C@@H](C3CCCC3)C(=O)N(C)[C@H](C(=O)N(C)C)CC(=O)N(C)[C@@H](CC)C(=O)N[C@@H]([C@@H](C)CC)C(=O)N3CC[C@H]3C(=O)N(C)[C@H]3CC(C)=C(C)CN(C3=O)[C@@H](Cc3ccc(C(F)(F)F)cc3)C(=O)N(C)CC(=O)N[C@@H](CCc3cc(F)c(C(F)(F)F)c(F)c3)C(=O)N2C1 [PP1049],C (A compound having a KD ratio of 0.1 or more and less than 3 is denoted as C),C (A compound having a KD ratio of 0.1 or more and less than 3 is denoted as C),359
CCO[C@@H]1C[C@H]2C(=O)NC3(CCCC3)C(=O)N(C)[C@@H](C3CCCC3)C(=O)N(C)[C@H](C(=O)N(C)C)CC(=O)N(C)[C@@H](CC)C(=O)N[C@@H]([C@@H](C)CC)C(=O)N(C)CC(=O)N(C)[C@H]3CC(C)=C(C)CN(C3=O)[C@@H](Cc3ccc(C(F)(F)F)cc3)C(=O)N(C)CC(=O)N[C@@H](CCc3cc(F)c(C(F)(F)F)c(F)c3)C(=O)N2C1 [PP1050],C (A compound having a KD ratio of 0.1 or more and less than 3 is denoted as C),C (A compound having a KD ratio of 0.1 or more and less than 3 is denoted as C),815
CCO[C@@H]1C[C@H]2C(=O)NC3(CCC3)C(=O)N(C)[C@@H](C3CCCC3)C(=O)N(C)[C@H](C(=O)N(C)C)CC(=O)N(C)[C@@H](CC)C(=O)N[C@@H]([C@@H](C)CC)C(=O)N(CC)CC(=O)N(C)[C@H]3C/C=C\CCN(C3=O)[C@@H](Cc3ccc(C(F)(F)F)cc3)C(=O)N(C)CC(=O)N[C@@H](CCc3cc(F)c(C(F)(F)F)c(F)c3)C(=O)N2C1 [PP1052],A (a compound having 10 or more and less than 20 is denoted as A),A (a compound having 10 or more and less than 20 is denoted as A),58.7
CCCN1CC(=O)N(C)[C@H]2C/C=C\CCN(C2=O)[C@@H](Cc2ccc(C(F)(F)F)cc2)C(=O)N(C)CC(=O)N[C@@H](CCc2cc(F)c(C(F)(F)F)c(F)c2)C(=O)N2C[C@H](OCC)C[C@H]2C(=O)NC2(CCC2)C(=O)N(C)[C@@H](C2CCCC2)C(=O)N(C)[C@H](C(=O)N(C)C)CC(=O)N(C)[C@@H](CC)C(=O)N[C@@H]([C@@H](C)CC)C1=O [PP1053],A (a compound having 10 or more and less than 20 is denoted as A),A (a compound having 10 or more and less than 20 is denoted as A),67.8
CCO[C@@H]1C[C@H]2C(=O)NC3(CCC3)C(=O)N(C)[C@@H](C3CCCC3)C(=O)N(C)[C@H](C(=O)N(C)C)CC(=O)N(C)[C@@H](CC)C(=O)N[C@@H]([C@@H](C)CC)C(=O)N(C)[C@@H](C)C(=O)N(C)[C@H]3C/C=C\CCN(C3=O)[C@@H](Cc3ccc(C(F)(F)F)cc3)C(=O)N(C)CC(=O)N[C@@H](CCc3cc(F)c(C(F)(F)F)c(F)c3)C(=O)N2C1 [PP1054],A (a compound having 10 or more and less than 20 is denoted as A),B (a compound having 3 or more and less than 10 is denoted as B),469
CCO[C@@H]1C[C@H]2C(=O)NC3(CCC3)C(=O)N(C)[C@@H](C3CCCC3)C(=O)N(C)[C@H](C(=O)N(C)C)CC(=O)N(C)[C@@H](CC)C(=O)N[C@@H]([C@@H](C)CC)C(=O)N3C[C@H](OCC)C[C@H]3C(=O)N(C)[C@H]3C/C=C\CCN(C3=O)[C@@H](Cc3ccc(C(F)(F)F)cc3)C(=O)N(C)CC(=O)N[C@@H](CCc3cc(F)c(C(F)(F)F)c(F)c3)C(=O)N2C1 [PP1057],A (a compound having 10 or more and less than 20 is denoted as A),B (a compound having 3 or more and less than 10 is denoted as B),96.9
CCO[C@@H]1C[C@H]2C(=O)NC3(CCC3)C(=O)N(C)[C@@H](C3CCCC3)C(=O)N(C)[C@H](C(=O)N(C)C)CC(=O)N(C)[C@@H](CC)C(=O)N[C@@H]([C@@H](C)CC)C(=O)N3CCSC[C@H]3C(=O)N(C)[C@H]3C/C=C\CCN(C3=O)[C@@H](Cc3ccc(C(F)(F)F)cc3)C(=O)N(C)CC(=O)N[C@@H](CCc3cc(F)c(C(F)(F)F)c(F)c3)C(=O)N2C1 [PP1060],A (a compound having 10 or more and less than 20 is denoted as A),A (a compound having 10 or more and less than 20 is denoted as A),307
CCO[C@@H]1C[C@H]2C(=O)NC3(CCC3)C(=O)N(C)[C@@H](C3CCCC3)C(=O)N(C)[C@H](C(=O)N(C)C)CC(=O)N(C)[C@@H](CC)C(=O)N[C@@H]([C@@H](C)CC)C(=O)N[C@@H](C)C(=O)N(C)[C@H]3C/C=C\CCN(C3=O)[C@@H](Cc3ccc(C(F)(F)F)cc3)C(=O)N(C)CC(=O)N[C@@H](CCc3cc(F)c(C(F)(F)F)c(F)c3)C(=O)N2C1 [PP1065],A (a compound having 10 or more and less than 20 is denoted as A),B (a compound having 3 or more and less than 10 is denoted as B),96.7
CC[C@H](C)[C@@H]1NC(=O)[C@H](CC(C)C)N(C)C(=O)C[C@@H](C(=O)N2CCOCC2)N(C)C(=O)[C@H](C2CCCC2)N(C)C(=O)C2(CCC2)NC(=O)[C@@H]2[C@@H](OC)CCN2C(=O)[C@H](CCc2cc(F)c(C(F)(F)F)c(F)c2)NC(=O)CN(C)C(=O)[C@H](Cc2ccc(C(F)(F)F)cc2)N2CCCCC[C@@H](C2=O)N(C)C(=O)CN(C)C1=O [PP1067],B (a compound having 3 or more and less than 10 is denoted as B),B (a compound having 3 or more and less than 10 is denoted as B),299
CCO[C@H]1CCN2C(=O)[C@H](CCc3cc(F)c(C(F)(F)F)c(F)c3)NC(=O)CN(C)C(=O)[C@H](Cc3ccc(C(F)(F)F)cc3)N3CCCCC[C@@H](C3=O)N(C)C(=O)CN(C)C(=O)[C@H]([C@@H](C)CC)NC(=O)[C@H](CC(C)C)N(C)C(=O)C[C@@H](C(=O)N3CCOCC3)N(C)C(=O)[C@H](C3CCCC3)N(C)C(=O)C3(CCC3)NC(=O)[C@H]12 [PP1068],A (a compound having 10 or more and less than 20 is denoted as A),B (a compound having 3 or more and less than 10 is denoted as B),121
CCCO[C@H]1CCN2C(=O)[C@H](CCc3cc(F)c(C(F)(F)F)c(F)c3)NC(=O)CN(C)C(=O)[C@H](Cc3ccc(C(F)(F)F)cc3)N3CCCCC[C@@H](C3=O)N(C)C(=O)CN(C)C(=O)[C@H]([C@@H](C)CC)NC(=O)[C@H](CC(C)C)N(C)C(=O)C[C@@H](C(=O)N3CCOCC3)N(C)C(=O)[C@H](C3CCCC3)N(C)C(=O)C3(CCC3)NC(=O)[C@H]12 [PP1069],A (a compound having 10 or more and less than 20 is denoted as A),B (a compound having 3 or more and less than 10 is denoted as B),127
CCCCO[C@H]1CCN2C(=O)[C@H](CCc3cc(F)c(C(F)(F)F)c(F)c3)NC(=O)CN(C)C(=O)[C@H](Cc3ccc(C(F)(F)F)cc3)N3CCCC[C@@H](C3=O)N(C)C(=O)CN(C)C(=O)[C@H]([C@@H](C)CC)NC(=O)[C@H](CC(C)C)N(C)C(=O)C[C@@H](C(=O)N3CCOCC3)N(C)C(=O)[C@H](C3CCCC3)N(C)C(=O)C3(CCC3)NC(=O)[C@H]12 [PP1071],B (a compound having 3 or more and less than 10 is denoted as B),B (a compound having 3 or more and less than 10 is denoted as B),24.7
